# Test results published in patent US7521569B2, “Process to obtain dibenzylbutyrolactonic lignans, process to obtain synthetic derivatives from lignans bearing anti-Chagas chemoprophylactic and therapeutical activities” (Fundação De Amparo À Pesquisa Do Estado de São Paulo, priority 2002, dated 2009).
# Where two headings read alike, the source gives them in different places.
# System: blood tripomastigote forms of different lines of Trypanosoma cruzi
# Assay: Tripanocidal activity: percentual of lysis of blood tripomastigote forms in infected mouse blood
# Type: cell-based
# Conditions: for killing at 25 µg/mL / IC50 / killing at 50 µg/mL: Trypanosoma cruzi; for killing at 25 µg/mL: read-out: % lysis; for anti-Chagas activity: statement in words
# Description: Evaluation of the tripanocidal activity was made by checking percentual of lysis from blood tripomastigote forms of different lines of Trypanosoma cruzi, isolated from […] of mice on the parasitemic peak. Biological essays have been made on 200 μl titration microplaques containing about […] forms of the parasite in each milliliter of used blood. Substance concentrations as used for evaluation were of 10, 25 and 50 μg/ml, which were solubilized under PBS buffer containing 5% dimethyl sulfoxide. After adding substances, infected blood has been incubated at 4° C. under constant shaking for a 24-hour period. After that period, the quantity of parasites surviving to the action of substances was counted in an optical microscope and in comparison to the negative control group (infected blood, adding the solution used to solubilized substances), calculations concerning the determination of lysis percentual have been made. As a positive control, gentian violet has been used under concentration of 250 μg/ml, as indicated for chemoprophylaxis. All essays have been made in triplicate.
# The biological activity protocol as described above is already fully published and used in the scientific field, being therefore standardized regarding tripanocidal activity (chemoprophylaxis and susceptibility evaluation for the parasite).
# Various scientific works using this method, which is even presented in the original evaluation work for the biological activity of cubebin, as published by Bastos and contributors in 1999.
# [1] = 50 μg/ml, infected blood, 4° C., 24 h
# [2] = 25 μg/ml, infected blood, 4° C., 24 h
# [3] = lysis of blood tripomastigotes, 24 h at 4° C., read-out: IC50
SMILES,% lysis [1],killing at 25 µg/mL [2] [%],IC50 [3] [µg/mL],anti-Chagas activity,killing at 25 µg/mL (24 h) [%],killing at 50 µg/mL [1] [%],"% lysis (250 μg/ml (positive control), infected blood, 4° C., 24 h)",IC50 (24 h) [µg/mL]
"CN(C)CCOC1OC[C@H](Cc2ccc3c(c2)OCO3)[C@H]1Cc1ccc2c(c1)OCO2 (single isomer, unassigned; (-)) [O-dimethylethylamine cubebin, (−)-O-dimethylethylamine-cubebin]",50/100%,90.1,3,bear anti-Chagas activity,–,–,–,–
"O=C1OC[C@H](Cc2cc3c(cc2[N+](=O)[O-])OCO3)[C@H]1Cc1cc2c(cc1[N+](=O)[O-])OCO2 [6,6′-Dinitrohinokinin, 6, 6′-Dinitrohinokinin]",–,–,37.1,bear anti-Chagas activity,57.6,82.8,–,–
"OC1OC[C@H](Cc2ccc3c(c2)OCO3)[C@H]1Cc1ccc2c(c1)OCO2 (stereo partly drawn) [Cubebin, cubebin]",–,7.3,97.6,bear anti-Chagas activity,–,52.3,–,–
"CN(C)c1ccc(C(=C2C=CC(=[N+](C)C)C=C2)c2ccc(N(C)C)cc2)cc1 [Gentian violet, gentian violet, reference compound]",–,–,76,–,–,–,250/100%,–
O=C1OC[C@H](Cc2ccc3c(c2)OCO3)[C@H]1Cc1ccc2c(c1)OCO2 [Hinokinin],–,80.1,0.9,bear anti-Chagas activity,–,95.4,–,–
"COc1ccc(C[C@H]2C(=O)OC[C@@H]2Cc2ccc3c(c2)OCO3)cc1OC [Metilpluviatolide, methylpluviatolide]",50/100%,–,–,bear anti-Chagas activity,99,–,–,1.3
"CC(=O)OC1OC[C@H](Cc2ccc3c(c2)OCO3)[C@H]1Cc1ccc2c(c1)OCO2 (stereo partly drawn) [O-acetyl cubebin, O-acetyl Cubebin]",50/100%,76.2,16.9,bear anti-Chagas activity,–,–,–,–
"COC1OC[C@H](Cc2ccc3c(c2)OCO3)[C@H]1Cc1ccc2c(c1)OCO2 (stereo partly drawn) [O-methyl cubebin, O-methyl Cubebin]",–,13.9,86.3,bear anti-Chagas activity,–,62,–,–
